In ChEMBL document CHEMBL5352382, “Synthesis and evaluation of imidazo[1,2-a]pyrazine derivatives as small molecule Gαq/11 inhibitors against uveal melanoma” (Eur J Med Chem, 2022):
Values belong to the molecule of their own block, whether it stands above or below them. Calls of active or inactive are those of the source. The calls are words filed in the database; no cut-off is given here.

Tests used:
[1] = molecular target: T1, GNAQ/GNA11 (Homo sapiens) (UniProt P50148+P29992); test: Inhibition of Galphaq/11 (unknown origin) expressed in CHO-M1 cells at 10 uM preincubated for 1 hr followed by carbachol stimulation for 30 mins and measured after 1 hr by IP1 accumulation based HTRF assay relative to control; format: cell-based; conditions: time 150.0 min
A-375 = test: Antiproliferative activity against human A-375 cells assessed as reduction in cell viability at 10 uM measured after 72 hrs by CCK-8 method; format: functional, cell-based
SK-MEL-2 = test: Antiproliferative activity against human SK-MEL-2 cells assessed as reduction in cell viability at 10 uM measured after 72 hrs by CCK-8 method; format: functional, cell-based
MP41 [2] = test: Antiproliferative activity against human MP41 cells assessed as reduction in cell viability at 1.25 uM measured after 72 hrs by CCK-8 method; format: functional, cell-based
921 = test: Antiproliferative activity against human 921 cells assessed as reduction in cell viability at 1.25 uM measured after 72 hrs by CCK-8 method; format: functional, cell-based
MP41 [3] = test: Inhibition of colony formation in human MP41 cells assessed as inhibition of cell proliferation incubated for 14 days with replacement with fresh medium for every 3 days by crystal violet staining based analysis; format: functional; conditions: dose 1-5 µM, time 14.0 day
MP41 [4] = test: Inhibition of cell invasion in human MP41 cells measured after 48 hrs by crystal violet staining based Boyden chamber invasion assay; format: functional; conditions: dose 3-10 µM
MP41 [5] = test: Inhibition of cell migration in human MP41 cells incubated for 24 hrs by wound healing assay; format: functional, cell-based; conditions: dose 3-10 µM
[6] = molecular target: T2, Mitogen-activated protein kinase; ERK1/ERK2 (Homo sapiens) (UniProt P27361+P28482); test: Inhibition of ERK1/2 phosphorylation in human MP41 cells at 20 uM by Western blot analysis; format: cell-based; conditions: time <= 24.0 hrs, TDE = time-dependent effect
[7] = molecular target: Transcriptional coactivator YAP1 (Homo sapiens) (UniProt P46937); test: Activation of YAP phosphorylation in human MP41 cells at 20 uM by Western blot analysis; format: cell-based; conditions: filed as activator, time <= 24.0 hrs, TDE = time-dependent effect
[8] = molecular target: T2, Mitogen-activated protein kinase; ERK1/ERK2 (Homo sapiens); test: Inhibition of ERK1/2 phosphorylation in human MP41 cells incubated for 4 hrs by Western blot analysis; format: cell-based; conditions: dose 3-20 µM
[9] = molecular target: T2, Mitogen-activated protein kinase; ERK1/ERK2 (Homo sapiens); test: Inhibition of ERK1/2 phosphorylation in human MP41 cells incubated for 24 hrs by Western blot analysis; format: cell-based; conditions: dose 3-20 µM
[10] = molecular target: Transcriptional coactivator YAP1 (Homo sapiens) (UniProt P46937); test: Activation of YAP phosphorylation in human MP41 cells incubated for 4 hrs by Western blot analysis; format: cell-based; conditions: filed as activator, dose 3-20 µM
[11] = molecular target: Transcriptional coactivator YAP1 (Homo sapiens) (UniProt P46937); test: Activation of YAP phosphorylation in human MP41 cells incubated for 24 hrs by Western blot analysis; format: cell-based; conditions: filed as activator, dose 3-20 µM
[12] = molecular target: T1, GNAQ/GNA11 (Homo sapiens); test: Binding affinity to Galphaq/11 (unknown origin) assessed as increase in thermal stability at 10 uM incubated for 1 hr by CETSA; format: protein assay
[13] = molecular target: T3, Type-1 angiotensin II receptor (Homo sapiens) (UniProt P30556); test: (§1) Inhibition of human AT1R expressed in HEK293 cells using […] incubated for 1 hr followed by addition of angiotensinII and substrate by BRET assay; format: cell-based; conditions: dose 0.3-100 µM
T3 sequence (whole entry): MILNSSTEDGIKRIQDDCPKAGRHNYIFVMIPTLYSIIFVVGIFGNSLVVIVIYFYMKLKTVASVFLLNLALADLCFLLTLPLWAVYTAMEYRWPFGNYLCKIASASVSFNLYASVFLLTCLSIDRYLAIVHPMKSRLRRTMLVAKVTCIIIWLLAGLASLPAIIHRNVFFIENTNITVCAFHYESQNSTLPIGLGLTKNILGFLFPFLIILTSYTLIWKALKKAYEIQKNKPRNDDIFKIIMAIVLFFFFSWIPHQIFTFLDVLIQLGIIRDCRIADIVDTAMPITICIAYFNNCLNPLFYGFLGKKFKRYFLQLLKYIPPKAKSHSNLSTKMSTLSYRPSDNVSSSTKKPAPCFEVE

MP41 [14] = test: Antiproliferative activity against human MP41 cells transfected with SiGNA11 assessed as reduction in cell viability measured after 72 hrs by CCK-8 method; format: functional, cell-based; conditions: dose <= 10.0 µM
[15] = Aqueous solubility of the compound in deionized water at 25 degreeC by HPLC analysis; format: physicochemical
[16] = Chemical stability of the compound assessed as compound remaining measured after 7 days by LC-MS analysis; format: physicochemical; conditions: time 7 day; read-out: Stability
[17] = Metabolic stability in human liver microsomes assessed as intrinsic clearance preincubated for 15 mins followed by NADPH addition and measured upto 45 mins by LC-MS/MS analysis; format: ADME, Microsome; conditions: time < 60 min, read-out: CLH
[18] = Metabolic stability in human liver microsomes assessed as half life preincubated for 15 mins followed by NADPH addition and measured upto 45 mins by LC-MS/MS analysis; format: ADME, Microsome; conditions: time < 60 min
[19] = Antiproliferative activity against human MP41 cells assessed as reduction in cell viability measured after 72 hrs by CCK-8 method; format: functional, cell-based; conditions: MP41, 72 h
[20] = Antiproliferative activity against human 921 cells assessed as reduction in cell viability measured after 72 hrs by CCK-8 method; format: functional, cell-based; conditions: Homo sapiens, 921, 72 h
HEK-293T = test: Cytotoxicity against HEK293T cells assessed as reduction in cell viability at 10 uM measured after 72 hrs by CCK-8 method; format: toxicity, cell-based; conditions: human
BEAS-2B = test: Cytotoxicity against human BEAS-2B cells assessed as reduction in cell viability at 10 uM measured after 72 hrs by CCK-8 method; format: toxicity, cell-based
[21] = molecular target: T4, Type-1 angiotensin II receptor (Homo sapiens, UniProt P30556); test: as §1; format: cell-based
T4 sequence (P30556 whole entry): T3 sequence (whole entry)

[22] = Inhibition of Galphaq (unknown origin) preincubated for 1 hr followed by carbachol stimulation for 30 mins and measured after 1 hr by IP1 accumulation based HTRF assay; set-up: species or system Homo sapiens

T2 sequence (P27361 whole entry, looked up): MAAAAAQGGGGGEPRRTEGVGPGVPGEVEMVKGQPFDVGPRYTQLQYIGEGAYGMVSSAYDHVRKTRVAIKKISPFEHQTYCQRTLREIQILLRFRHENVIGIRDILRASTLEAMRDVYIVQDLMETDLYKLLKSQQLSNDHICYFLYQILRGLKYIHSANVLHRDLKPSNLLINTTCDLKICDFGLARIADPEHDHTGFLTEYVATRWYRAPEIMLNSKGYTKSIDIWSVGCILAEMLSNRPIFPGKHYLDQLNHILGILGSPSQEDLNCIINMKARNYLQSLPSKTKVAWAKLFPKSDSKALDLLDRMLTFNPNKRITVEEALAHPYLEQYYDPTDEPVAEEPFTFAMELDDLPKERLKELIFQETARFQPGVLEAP
T2 sequence (P28482 whole entry, looked up): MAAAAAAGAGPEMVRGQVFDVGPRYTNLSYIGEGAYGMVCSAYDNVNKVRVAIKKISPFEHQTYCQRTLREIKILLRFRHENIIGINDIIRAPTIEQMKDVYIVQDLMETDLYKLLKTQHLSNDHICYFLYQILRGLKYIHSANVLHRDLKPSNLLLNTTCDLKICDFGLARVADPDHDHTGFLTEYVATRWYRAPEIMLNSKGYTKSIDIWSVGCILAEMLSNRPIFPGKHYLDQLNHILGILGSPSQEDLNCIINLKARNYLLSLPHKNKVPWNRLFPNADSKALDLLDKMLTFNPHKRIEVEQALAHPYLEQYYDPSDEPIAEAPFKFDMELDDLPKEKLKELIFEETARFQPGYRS
Transcriptional coactivator YAP1 (Homo sapiens), sequence (P46937 whole entry): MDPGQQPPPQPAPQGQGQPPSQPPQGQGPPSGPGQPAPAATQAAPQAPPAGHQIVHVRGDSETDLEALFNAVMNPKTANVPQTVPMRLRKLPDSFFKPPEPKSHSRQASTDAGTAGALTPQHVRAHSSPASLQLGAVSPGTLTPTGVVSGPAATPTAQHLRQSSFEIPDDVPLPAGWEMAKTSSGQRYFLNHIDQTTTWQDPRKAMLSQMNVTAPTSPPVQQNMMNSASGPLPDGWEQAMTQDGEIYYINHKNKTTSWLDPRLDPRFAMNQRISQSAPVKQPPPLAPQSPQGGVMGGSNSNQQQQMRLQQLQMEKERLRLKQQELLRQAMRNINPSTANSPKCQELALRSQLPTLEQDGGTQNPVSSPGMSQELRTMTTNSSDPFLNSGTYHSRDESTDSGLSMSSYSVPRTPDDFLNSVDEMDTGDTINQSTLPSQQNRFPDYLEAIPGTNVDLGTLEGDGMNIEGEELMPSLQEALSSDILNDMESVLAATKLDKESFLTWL

inhibition [1]: 18.3%
inhibition [6]: Tde
Activity [7]: Tde
inhibition [8]: Dose-Dependent Effect
inhibition [9]: Dose-Dependent Effect
Activity [10]: Dose-Dependent Effect
Activity [11]: Dose-Dependent Effect
Activity [12]: Active
inhibition [13]: Dose-Dependent Effect
Compound: CC[C@H](C)[C@H](N)C(=O)N1CCn2cc(-c3ccc4c(c3)CCCC4)nc2[C@@H]1CC1CCCCC1 [listing 1 of 2 here]
Activity (A-375): inactive
Activity (SK-MEL-2): inactive
Activity (MP41 [2]): Active
Activity 921: Active
inhibition (MP41 [3]): Dose-Dependent Effect
inhibition (MP41 [4]): Dose-Dependent Effect
inhibition (MP41 [5]): Dose-Dependent Effect
Activity (MP41 [14]): Dose-Dependent Effect

solubility [15]: 9190 µg/mL
remaining at 168 h [16]: 98.5%
CLint scaled [17]: 16.4 mL/min/kg
half-life [18]: 1.77 h
Compound: CC[C@H](C)[C@H](N)C(=O)N1CCn2cc(-c3ccc4c(c3)CCCC4)nc2[C@@H]1CC1CCCCC1.O=C(O)C(F)(F)F

IC50 [21]: 8.9 µM
IC50 [22]: 23 µM
Compound: CC[C@H](C)[C@H](N)C(=O)N1CCn2cc(-c3ccc4c(c3)CCCC4)nc2[C@@H]1CC1CCCCC1 [listing 2 of 2 here]
IC50 [19]: 3.5 µM
IC50 [20]: 6.8 µM
Activity (HEK-293T): Non-Toxic
Activity (BEAS-2B): Non-Toxic
